# Results from publication PMC2360155, “Novel retinoic acid metabolism blocking agents have potent inhibitory activities on human breast cancer cells and tumour growth” (British Journal of Cancer, 2007).
# Tests used:
# [1] = system: Bad; assay: Western immunoblotting for Bad in MCF-7 and T47D cells; assay type: cell-based, human; conditions: 1, 5 and 10 μM each; 6 days; no significant dose-dependent effect
# Method: (§1) At the end of the treatment, cells were scrapped and collected by washing with ice-cold PBS in a centrifuge tube. Cells were centrifuged at 2500 r.p.m. for 10 min, the pellet was again washed with ice-cold PBS and centrifuged. The cell pellet was then suspended in chilled cell lysis buffer (0.1 M Tris–HCl, 0.5% Triton X-100, protease inhibitor cocktail) and sonicated on ice for 10–15 s. The homogenate was kept on ice for 30 min and then centrifuged at 13 000 r.p.m. for 30 min. The supernatant was used as cell lysate. The cell lysates were stored at −80°C. Protein concentration of the cell lysates was determined using Bio-Rad protein assay reagents.
# (§2) Protein lysates from MCF-7 and T47D cells were subjected to sodium dodecyl sulphate–polyacrylamide gel electrophoresis (SDS–PAGE) and immunoblotted for different proteins. […] Immunoreactive bands were visualised using the enhanced chemiluminescence detection reagents and analysis system (Amersham Bioscences) according to the manufacturer's instructions and quantified by densitometry using ImageQuant software version 5.
# (§3) Figure 7 (A) Western immunoblotting of whole-cell lysates of treated MCF-7 and T47D cells for the expression of Bad. […] Numbers below the blot show fold increase in expression of the protein as analysed by ImageQuant densitometry analysis. […]
# [2] = system: MCF-7 tumour xenografts; assay: In vivo antitumour study, ATRA and VN/14-1 alone or in combination, MCF-7 tumour xenografts; set-up: species or system ovariectomised female athymic nude mice; conditions: single agents: ATRA 33.0, VN/14-1 16.5 μmol kg^−1 day^−1; 36 days
# Method: The second experiment was similar to that described above, but consisted of only four groups. When the tumour volume has reached about 100 mm^3, the mice were randomly divided in to four groups of five mice each. […] These treatments continued for 36 days and the tumours were measured and processed as described above.
# Procedure was similar to that described in Figure 8A.
# [3] = biological target: T1, RARβ (Mus musculus, UniProt P22605); assay: Transactivation assay (RARE-CAT reporter, CV-1 cells), RARβ; assay type: cell-based; conditions: 50% of maximal activity obtained with 10^−6 M all-trans-RA
# T1 construct: expressed in transfected cells; host or cells: CV-1 cells
# T1 sequence (P22605 1-448 isoform P22605-3): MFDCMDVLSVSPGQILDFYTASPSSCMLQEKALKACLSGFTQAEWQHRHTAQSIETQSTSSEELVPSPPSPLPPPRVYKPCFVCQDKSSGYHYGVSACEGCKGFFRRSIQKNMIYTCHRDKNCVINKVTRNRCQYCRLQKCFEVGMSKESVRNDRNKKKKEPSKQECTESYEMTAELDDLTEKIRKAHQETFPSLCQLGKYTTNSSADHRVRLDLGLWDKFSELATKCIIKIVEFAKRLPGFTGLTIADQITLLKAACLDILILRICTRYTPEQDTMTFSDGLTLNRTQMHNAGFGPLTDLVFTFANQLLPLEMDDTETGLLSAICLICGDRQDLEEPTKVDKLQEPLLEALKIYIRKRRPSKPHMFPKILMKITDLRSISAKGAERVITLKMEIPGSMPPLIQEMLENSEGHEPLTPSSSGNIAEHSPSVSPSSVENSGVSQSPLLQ
# Method: Briefly, CV-1 cells were cotransfected with 4 μg RAR subtype (RARα, RARβ or RARγ) expression vector construct in pSG5, 4 μg RARE-CAT reporter DNA and 1 μg pCMV-β-gal DNA. Twenty-four hours following transfection, the cells were treated with various concentrations of each RAMBA ranging from 10^−11–10^−5 M along with an ethanol carrier control. Additional cells were treated with 10^−6 M all-trans-RA for normalisation. Twenty-four hours later, the cells were harvested and CAT and β-gal activities were assayed.
# [4] = system: PARP; assay: Western immunoblotting for cleaved PARP in MCF-7 cells; assay type: cell-based, human; conditions: 5 μM, 6 days
# Method: as §1, §2, §3
# [5] = system: caspase-9; assay: Western immunoblotting for caspase-9 in T47D cells; assay type: cell-based, human; conditions: 6 days
# Method: as §1
# Protein lysates from MCF-7 and T47D cells were subjected to sodium dodecyl sulphate–polyacrylamide gel electrophoresis (SDS–PAGE) and immunoblotted for different proteins. Equal amounts of protein (25–50 μg) were subjected to SDS–PAGE at 60 V for 3 h using the mini PROTEAN3 electrophoresis module assembly (Bio-Rad, Hercules, CA, USA), and transferred to nitrocellulose membranes (Hybond ECL, Amersham). Immunodetections were carried out using antibodies against CK 8/18 (1° antibody – 1 : 8000 in 10% milk PBST), E-cadherin (1° antibody – 1 : 1000 in 5% milk in TBST) and ER-α (1° antibody – 1 : 200 in 5% milk PBST) purchased from Santa Cruz Biotechnology Inc. Antibodies against PARP (1° antibody – 1 : 1000 in 5% milk TBST), cyclin- D1 (1° antibody – 1 : 2000 in 10% milk TBST), caspase-9 (1° antibody – 1 : 1000 in 10% milk TBST) and BAD (1° antibody – 1 : 1000 in 5% BSA TBST) were obtained from Cell Signaling Technology. Antibody for β-actin was obtained from Calbiochem (CA, USA). Secondary anti-mouse IgG HRP conjugate antibody was purchased from Calbiochem and Bio-Rad. Secondary anti-rabbit IgG HRP conjugate antibody was bought from Bio-Rad as well as from Kirkegaard and Perry laboratories (Gaithersburg, MD, USA). Immunoreactive bands were visualised using the enhanced chemiluminescence detection reagents and analysis system (Amersham Bioscences) according to the manufacturer's instructions and quantified by densitometry using ImageQuant software version 5.
# Figure 7 (A) Western immunoblotting of whole-cell lysates of treated MCF-7 and T47D cells for the expression of Bad. […] Numbers below the blot show fold increase in expression of the protein as analysed by ImageQuant densitometry analysis. Membranes were stripped and probed for β-actin to verify equal protein loading. Primary antibody (Cell Signaling Technology) 1 : 1000 in 5% BSA TBST overnight at 4°C and secondary antibody (anti-rabbit) 1 : 2000 for 1 h at RT. This experiment was repeated twice with similar results. […] Numbers below the blot show fold increase in the active form of caspase-9 as compared with control. Membrane was stripped and probed for β-actin to verify equal amount of protein loading. The primary and secondary antibodies and their dilutions are as follows: primary antibody (Cell Signaling Technology), 1 : 1000 in 10% milk TBST overnight at 4°C and secondary antibody (anti-rabbit) 1 : 2000 in 10% milk TBST for 1 h at RT. Densitometry analysis was performed by ImageQuant software. This experiment was repeated twice with similar results. (C) Western immunoblotting of whole-cell lysates of treated MCF-7 and T47D cells for the expression of full-length and cleaved PARP. […] T47D cells were treated with RAMBAs (VN/50-1 and VN/14-1) for 6 days and then cell lysates were electrophoresed using 10% SDS–PAGE and subjected to Western blotting. Lane 1: control; lanes 2–4: VN/50-1 (1, 5 and 10 μM); lanes 5–7: VN/14-1 (1, 5 and 10 μM). Numbers below the blot show fold increase in expression of the protein as analysed by ImageQuant densitometry analysis. Membranes were stripped and probed for β-actin to verify equal protein loading. Primary antibody (Cell Signaling Technology) 1 : 1000 in 5% milk TBST overnight at 4°C and secondary antibody (anti-rabbit) 1 : 2000 for 1 h at RT. […]
SMILES,Upregulation of Bad protein [1],Tumour growth inhibition compared with controls (in words) [2],EC50 [3],Increase in level of cleaved PARP (89 kDa) compared with control [4],"Expression of procaspase-9 (47 kDa), control = 1 ([5]; 5 μM)",Increase of active form of caspase-9 (37 kDa) compared with untreated control ([5]; 5 μM),"Expression of procaspase-9 (47 kDa), control = 1 ([5]; 10 μM)",Increase of active form of caspase-9 (37 kDa) compared with untreated control ([5]; 10 μM)
CC1=C(/C=C/C(C)=C/C=C/C(C)=C/C(=O)O)C(C)(C)CCC1n1ccnc1 (stereo not shown) [VN/14-1],about two-fold,modest tumour growth inhibition,1.5 µM,almost two-fold increases,0.4 fold,1.7 fold,0.7 fold,1.7 fold
"CC1=C(/C=C/C(C)=C/C=C/C(C)=C/C(=O)O)C(C)(C)CCC1 [ATRA, all-trans-retinoic acid, reference compound]",about two-fold,modest tumour growth inhibition,,almost two-fold increases,0.4 fold,1.7 fold,0.3 fold,1.8 fold
CC1=C(/C=C/C(C)=C/C=C/C(C)=C\C(=O)Nc2ccc(O)cc2)C(C)(C)CCC1n1ccnc1 (stereo not shown) [VN/69-1],,,> 10 µM,,,,,
